Assay results reported in patent publication US20120309622A1, “HERBICIDES CONTAINING SUBSTITUTED THIEN-3-YL-SULPHONYLAMINIO(THIO)CARBONYL-TRIAZOLIN(ETHI)ONES” (BAYER INTELLECTUAL PROPERTY GMBH, priority 2001, published 2012).

Legend:
Assay in all cases: Post-emergence test/greenhouse, % damage after three weeks
Format in all cases: in vivo
Bromus secalinus = tested on: Bromus secalinus
Protocol: (§1) The expected action for a given combination of two herbicides can be calculated as follows (cf. COLBY, S. R.: “Calculating synergistic and antagonistic responses of herbicide combinations”, Weeds 15, pages 20-22, 1967):
(§2) If the actual damage exceeds the calculated value, the combination has a superadditive effect, that is to say a synergistic effect.
(§3) Test plants are grown under control conditions (temperature and light).
(§4) Following the spray application, the plant containers are kept in the greenhouse under constant light and temperature conditions.
(§5) After three weeks, the degree of damage to the plants is rated in % damage in comparison to the development of the untreated control.

Cyperus esculentus = tested on: Cyperus esculentus
Excerpt: as §1
(§6) If • X=% damage by herbicide A (active compound of the formula I) at an application rate of p kg/ha and • Y=% damage by herbicide B (active compound of the formula II) at an application rate of q kg/ha and • E=the expected damage of herbicides A+B at an application rate of p+q kg/ha, then
as §2
(§7) Test plants are grown under control conditions (temperature and light). Once the plants have reached a height of 5 to 15 cm, the test compound or the combination of test compounds is applied by spraying such that the particular amounts of active compound desired are applied per unit area. The concentration of the spray liquor is chosen so that the particular amounts of active compound desired are applied in 500 litres of water/ha.
as §4, §5
(§8) The figures denote: • 0%=no effect (like untreated control) • 100%=total destruction

Avena fatua = tested on: Avena fatua
Excerpt: as §1, §6, §2, §7, §4, §5, §8

Setaria viridis = details: for Setria viridis observed: post-emergence
Excerpt: as §1, §6, §2, §7, §4, §5, §8

Chenopodium album = tested on: Chenopodium album
Excerpt: as §1, §6, §2, §7, §4, §5, §8

Alopecurus myosuroides = tested on: Alopecurus myosuroides
Excerpt: as §1, §6, §2, §7, §4, §5, §8

Cassia tora = details: 30 g of ai/ha
Protocol: as §1, §2, §3, §4, §5

Lolium perenne = tested on: Lolium perenne
Eriochloa villosa = tested on: Eriochloa villosa
Xanthium strumarium = tested on: Xanthium strumarium
Excerpt: as §1, §6, §2, §7, §4, §5, §8

Matricaria inodora = tested on: Matricaria inodora
Excerpt: as §1, §6, §2, §7, §4, §5, §8

Veronica persicaria = tested on: Veronica persicaria
Protocol: as §1, §2, §3, §4, §5

Digitaria sanguinalis = details: 8 g of ai/ha
Excerpt: as §1, §6, §2, §7, §4, §5, §8

Compound: COC(=O)c1ccc(CNS(C)(=O)=O)cc1S(=O)(=O)NC(=O)Nc1nc(OC)cc(OC)n1 [mesosulfuron]
- Bromus secalinus observed (Bromus secalinus; 8 g of ai/ha): 0%
- Cyperus esculentus observed (Cyperus esculentus; 8 g of ai/ha): 70%
- Cyperus esculentus observed (Cyperus esculentus; 15 g of ai/ha): 70%

Compound: COc1cc(OC)nc(NC(=O)NS(=O)(=O)N(C)S(C)(=O)=O)n1 [amidosulfuron, N-(4,6-di-methoxypyrimidin-2-yl)-N′—(N-methyl-N-methylsulphonylsulphamoyl)urea, reference compound]
- pest or weed control at 8 g/ha (Bromus secalinus; Bromus secalinus, post-emergence, 504 h, 8 g of ai/ha, read-out: Bromus secalinus observed): 0%
- Avena fatua observed (Avena fatua; 8 g of ai/ha): 0%
- Avena fatua observed (Avena fatua; 15 g of ai/ha): 0%
- Setaria viridis observed (Setaria viridis; 8 g of ai/ha): 0%
- Setaria viridis observed (Setaria viridis; 15 g of ai/ha): 30%

Compound: CCOC(=O)C(Cl)Cc1cc(-n2nc(C)n(C(F)F)c2=O)c(F)cc1Cl (centres unmarked) [carfentrazone-ethyl, 2-(4-chloro-2-fluoro-5-(2-chloro-2-ethoxycarbonylethyl)phenyl)-4-difluoromethyl-5-methyl-2,4-dihydro-3H-1,2,4-triazol-3-one, reference compound]
- Chenopodium album observed (Chenopodium album; 2 g of ai/ha): 0%
- Chenopodium album observed (Chenopodium album; 4 g of ai/ha): 30%
- Chenopodium album observed (Chenopodium album; 8 g of ai/ha): 50%
- Cyperus esculentus observed (Cyperus esculentus; 4 g of ai/ha): 0%
- Cyperus esculentus observed (Cyperus esculentus; 8 g of ai/ha): 30%
- Alopecurus myosuroides observed (Alopecurus myosuroides; 8 g of ai/ha): 0%

Compound: O=C(Nc1ccc(F)cc1)c1cccc(Oc2cccc(C(F)(F)F)c2)n1 [picolinafen]
- Cassia tora observed (Cassia tora): 70%
- Lolium perenne observed (Lolium perenne; 15 g of ai/ha): 0%
- Lolium perenne observed (Lolium perenne; 30 g of ai/ha): 20%
- Eriochloa villosa observed (Eriochloa villosa; 15 g of ai/ha): 30%
- Eriochloa villosa observed (Eriochloa villosa; 30 g of ai/ha): 80%

Compound: CSc1nnc(C(C)(C)C)c(=O)n1N [metribuzin]
- Xanthium strumarium observed (Xanthium strumarium; 30 g of ai/ha): 40%
- Matricaria inodora observed (Matricaria inodora; 30 g of ai/ha): 0%

Compound: N#Cc1cc(Br)c(O)c(Br)c1 [bromoxynil, 3,5-dibromo-4-hydroxybenzonitrile, reference compound]
- Activity against Chenopodium album (%) (Chenopodium album; 250 g of a.i./ha): 80%

Compound: COc1c(Cl)ccc(Cl)c1C(=O)O [dicamba, 3,6-dichloro-2-methoxybenzoic acid, reference compound]
- Veronica persicaria observed (Veronica persicaria; 60 g of ai/ha): 40%
- Cyperus esculentus observed (Cyperus esculentus; 30 g of ai/ha): 0%
- Cyperus esculentus observed (Cyperus esculentus; 125 g of ai/ha): 0%
- Alopecurus myosuroides observed (Alopecurus myosuroides; 30 g of ai/ha): 0%
- Alopecurus myosuroides observed (Alopecurus myosuroides; 60 g of ai/ha): 0%

Compound: CCOC(=O)COc1cc(-c2nn(C)c(OC(F)F)c2Cl)c(F)cc1Cl [pyraflufen ethyl]
- Setria viridis observed (Setaria viridis; application rate 2 g of ai/ha): 40%
- Setria viridis observed (Setaria viridis; application rate 4 g of ai/ha): 40%

Compound: thifensulfuron-methyl
- Bromus secalinus observed (Bromus secalinus; 8 g of ai/ha): 0%
- Bromus secalinus observed (Bromus secalinus; 15 g of ai/ha): 0%
- Eriochloa villosa observed (Eriochloa villosa; 15 g of ai/ha): 10%
- Setaria viridis observed (Setaria viridis; 15 g of ai/ha): 0%

Compound: CS(=O)(=O)c1cc(C(F)(F)F)ccc1C(=O)c1cnoc1C1CC1 [isoxaflutole]
- pest or weed control at 2 g/ha (Bromus secalinus; Bromus secalinus, post-emergence, 504 h, 2 g of ai/ha, read-out: Bromus secalinus observed): 0%
- pest or weed control at 4 g/ha (Bromus secalinus; Bromus secalinus, post-emergence, 504 h, 4 g of ai/ha, read-out: Bromus secalinus observed): 0%
- Alopecurus myosuroides observed (Alopecurus myosuroides; 2 g of ai/ha): 0%
- Alopecurus myosuroides observed (Alopecurus myosuroides; 4 g of ai/ha): 0%
- Matricaria inodora observed (Matricaria inodora; 4 g of ai/ha): 70%

Compound: terbuthylazine
- Bromus secalinus observed (Bromus secalinus; 500 g of ai/ha): 50%

Compound: fluroxypyr
- Veronica persicaria observed (Veronica persicaria; 125 g of ai/ha): 90%
- Bromus secalinus observed (Bromus secalinus; 60 g of ai/ha): 0%
- Bromus secalinus observed (Bromus secalinus; 125 g of ai/ha): 0%
- Matricaria inodora observed (Matricaria inodora; 60 g of ai/ha): 30%
- Matricaria inodora observed (Matricaria inodora; 125 g of ai/ha): 70%

Compound: C[C@@H](Oc1ccc(Cl)cc1Cl)C(=O)O [dichlorprop-P, (R)-2-(2,4-dichlorophen-oxy)propanoic acid, reference compound]
- Avena fatua observed (Avena fatua; 125 g of ai/ha): 0%
- Avena fatua observed (Avena fatua; 250 g of ai/ha): 10%
- Alopecurus myosuroides observed (Alopecurus myosuroides; 60 g of ai/ha): 0%
- Alopecurus myosuroides observed (Alopecurus myosuroides; 125 g of ai/ha): 0%
- Alopecurus myosuroides observed (Alopecurus myosuroides; 250 g of ai/ha): 20%
- Matricaria inodora observed (Matricaria inodora; 60 g of ai/ha): 0%
- Matricaria inodora observed (Matricaria inodora; 125 g of ai/ha): 0%
- Matricaria inodora observed (Matricaria inodora; 250 g of ai/ha): 0%

Compound: imazamox
- Bromus secalinus observed (Bromus secalinus; 8 g of ai/ha): 60%
- Digitaria sanguinalis observed (Digitaria sanguinalis): 30%
- Matricaria inodora observed (Matricaria inodora; 8 g of ai/ha): 30%
- Matricaria inodora observed (Matricaria inodora; 15 g of ai/ha): 50%

Compound: COC(=O)c1cc(Oc2ccc(Cl)cc2Cl)ccc1[N+](=O)[O-] [bifenox, methyl 5-(2,4-dichlorophenoxy)-2-nitrobenzoate, reference compound]
- pest or weed control at 60 g/ha (Bromus secalinus; Bromus secalinus, post-emergence, 504 h, 60 g of ai/ha, read-out: Bromus secalinus observed): 0%
- pest or weed control at 125 g/ha (Bromus secalinus; Bromus secalinus, post-emergence, 504 h, 125 g of ai/ha, read-out: Bromus secalinus observed): 0%
- pest or weed control at 250 g/ha (Bromus secalinus; Bromus secalinus, post-emergence, 504 h, 250 g of ai/ha, read-out: Bromus secalinus observed): 10%
- Avena fatua observed (Avena fatua; 60 g of ai/ha): 10%
- Avena fatua observed (Avena fatua; 125 g of ai/ha): 10%
- Avena fatua observed (Avena fatua; 250 g of ai/ha): 10%
- Xanthium strumarium observed (Xanthium strumarium; 60 g of ai/ha): 60%
- Xanthium strumarium observed (Xanthium strumarium; 125 g of ai/ha): 60%
- Xanthium strumarium observed (Xanthium strumarium; 250 g of ai/ha): 70%
